Results: article PMC7774954, “Interactomic affinity profiling by holdup assay: Acetylation and distal residues impact the PDZome-binding specificity of PTEN phosphatase” (PLoS ONE, 2020)
*1 amine or outer side, *2 acyl side, *3 side chain or, on linkers, in order; H or OH if unused. Where a SMILES comes first, the peptide text is derived from it. The star is where a group is joined. X1 = O=C(CCCC[C@@H]1SC[C@@H]2NC(=O)N[C@@H]21)NCCCOCCOCCOCCCN*; Suc = O=C(CCC(=O)[*:2])[*:1]

System: 266 human PDZ domains (PDZome)
Test: Holdup assay (chromatographic retention, PDZome-binding profile, BI)
Set-up: key to maximal BI / Max BI / BI: binding intensity: 0.00 = no binding, 1.00 = maximal binding; Log(Kd): unit not given here
Summary of the method: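 Streptavidin resin was saturated with biotinylated 11-mer or 13-mer PTEN PBM peptides (42 μM loading solution), with biotin-only resin as the reference. Resins were incubated for 15 min with lysates containing MBP- or thioredoxin-tagged PDZ domains adjusted to 4 μM, in singlicate. Free PDZ in the filtrate was quantified by capillary electrophoresis, and depletion versus reference gave binding intensity (0–1).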

[1] = PDZ domain PARD3-1, first of two lines so named (r186)

Q: With `CC[C@H](C)[C@H](NC(=O)[C@H](CCC(N)=O)NC(=O)[C@@H](NC(=O)[C@H](Cc1c[nH]cn1)NC(=O)[C@H](CCC(N)=O)NC(=O)[C@H](CC(=O)O)NC(=O)[C@H](CCC(=O)O)NC(=O)[C@H](CC(=O)O)NC(=O)CCC(=O)NCCCOCCOCCOCCCNC(=O)CCCC[C@@H]1SC[C@@H]2NC(=O)N[C@@H]21)[C@@H](C)O)C(=O)N[C@H](C(=O)N[C@@H](CCCNC(=N)N)C(=O)N[C@H](C(=O)O)C(C)C)[C@@H](C)O` [PTEN_KR] ({X1-Suc}-DEDQHTQITRV-OH) as the compound, how does the “number of additional new PDZ partners not detected for PTEN_11” value (BI>0.20, compared with PTEN_11) read?
A: ≥ 11

Q: And the BI (PDZ domain MPDZ-2)?
A: 0.021

Q: What about the BI (PDZ domain MPDZ-3) of the same compound?
A: 0.034

Q: And the BI (PDZ domain MPDZ-4)?
A: -0.021

Q: What about the BI (PDZ domain MPDZ-5) of the same compound?
A: 0.058

Q: What about the BI (PDZ domain MPDZ-6) of the same compound?
A: 0.033

Q: What about the BI (PDZ domain MPDZ-7) of the same compound?
A: 0.267

Q: What about the BI (PDZ domain MPDZ-8) of the same compound?
A: 0.128

Q: And the BI (PDZ domain MPDZ-13)?
A: 0.454

Q: What about the BI (PDZ domain MPP1-1) of the same compound?
A: -0.046

Q: What about the BI (PDZ domain MPP2-1) of the same compound?
A: -0.03

Q: And the BI (PDZ domain MPP3-1)?
A: -0.023

Q: And the BI (PDZ domain MPP4-1)?
A: 0.067

Q: What about the BI (PDZ domain MPP5-1) of the same compound?
A: -0.045

Q: What about the BI (PDZ domain MPP6-1) of the same compound?
A: -0.058

Q: What about the BI (PDZ domain MPP7-1) of the same compound?
A: -0.023

Q: What about the BI (PDZ domain NHERF1-2) of the same compound?
A: 0.063

Q: What about the BI (PDZ domain NHERF3-2) of the same compound?
A: 0.002

Q: What about the BI (PDZ domain NHERF3-3) of the same compound?
A: 0.185

Q: And the BI (PDZ domain NHERF4-1)?
A: 0.041

Q: And the BI (PDZ domain NHERF4-2)?
A: -0.071

Q: And the BI (PDZ domain NHERF4-3)?
A: -0.035

Q: What about the BI (PDZ domain NHERF4-4) of the same compound?
A: 0.01

Q: And the BI (PDZ domain NOS1-1)?
A: 0.039

Q: What about the BI [1] of the same compound?
A: 0.3

Q: What about the “Log(Kd)” value [1] of the same compound?
A: 4.255

Q: What about the BI (PDZ domain PARD3-1, second of two lines so named (r187)) of the same compound?
A: -0.046

Q: And the BI (PDZ domain PARD3B-1)?
A: -0.02

Q: What about the BI (PDZ domain PARD3B-2) of the same compound?
A: -0.019

Q: And the BI (PDZ domain PARD3B-3)?
A: -0.035

Q: What about the BI (PDZ domain PARD6G-1) of the same compound?
A: -0.023

Q: What about the BI (PDZ domain PDLIM1-1) of the same compound?
A: -0.2

Q: What about the BI (PDZ domain PDLIM2-1) of the same compound?
A: 0.034

Q: And the BI (PDZ domain PDLIM3-1)?
A: -0.065

Q: What about the BI (PDZ domain PDLIM4-1) of the same compound?
A: -0.087

Q: And the BI (PDZ domain PDLIM5-1)?
A: 0.086

Q: And the BI (PDZ domain PDLIM7-1)?
A: -0.042

Q: And the BI (PDZ domain PDZD2-1)?
A: -0.056

Q: And the BI (PDZ domain PDZD2-3)?
A: -0.096

Q: And the BI (PDZ domain PDZD2-4)?
A: -0.092

Q: And the BI (PDZ domain PDZD2-5)?
A: -0.089

Q: And the BI (PDZ domain PDZD2-6)?
A: 0.089

Q: What about the BI (PDZ domain PDZD4-1) of the same compound?
A: 0.031

Q: And the BI (PDZ domain PDZD7-1)?
A: -0.024

Q: What about the BI (PDZ domain PDZD7-2) of the same compound?
A: -0.039

Q: And the BI (PDZ domain PDZD7-3)?
A: 0.756

Q: What about the BI (PDZ domain PDZD8-1) of the same compound?
A: 0.006

Q: What about the BI (PDZ domain PDZD11-1) of the same compound?
A: -0.048

Q: What about the BI (PDZ domain PDZRN4-1) of the same compound?
A: 0.048

Q: And the BI (PDZ domain PDZRN4-2)?
A: -0.071

Q: What about the BI (PDZ domain PPP1R9A-1) of the same compound?
A: 0.012

Q: What about the BI (PDZ domain PPP1R9B-1) of the same compound?
A: 0.038

Q: And the BI (PDZ domain PREX2-2)?
A: -0.004

Q: And the BI (PDZ domain PRX-1)?
A: 0.025

Q: What about the BI (PDZ domain PSMD9-1) of the same compound?
A: -0.039

Q: And the BI (PDZ domain PTPN3-1)?
A: 0.12

Q: What about the BI (PDZ domain PTPN4-1) of the same compound?
A: -0.038

Q: And the BI (PDZ domain PTPN13-1)?
A: -0.017

Q: What about the BI (PDZ domain PTPN13-5) of the same compound?
A: 0.096

Q: What about the BI (PDZ domain RAPGEF2-1) of the same compound?
A: -0.11

Q: And the BI (PDZ domain RHPN2-1)?
A: -0.087

Q: What about the BI (PDZ domain RIMS1-1) of the same compound?
A: 0.013

Q: What about the BI (PDZ domain SCRIB-1) of the same compound?
A: 0.042

Q: And the BI (PDZ domain SCRIB-2)?
A: 0.147

Q: And the BI (PDZ domain SCRIB-4)?
A: 0.039

Q: And the BI (PDZ domain SDCBP-2)?
A: -0.067

Q: What about the BI (PDZ domain SHANK1-1) of the same compound?
A: 0.547

Q: And the BI (PDZ domain SHANK3-1)?
A: 0.554

Q: And the BI (PDZ domain SHROOM2-1)?
A: 0.058

Q: And the BI (PDZ domain SHROOM3-1)?
A: 0.042

Q: What about the BI (PDZ domain SHROOM4-1) of the same compound?
A: -0.148

Q: What about the BI (PDZ domain SIPA1L2-1) of the same compound?
A: 0.064

Q: What about the BI (PDZ domain SIPA1L3-1) of the same compound?
A: -0.006

Q: And the BI (PDZ domain SNTA1-1)?
A: 0.395

Q: What about the BI (PDZ domain SNTB1-1) of the same compound?
A: 0.503

Q: What about the BI (PDZ domain SNTG1-1) of the same compound?
A: 0.076

Q: What about the BI (PDZ domain SNTG2-1) of the same compound?
A: 0.383

Q: And the BI (PDZ domain STXB4-1)?
A: -0.075

Q: What about the BI (PDZ domain SYNJ2BP-1) of the same compound?
A: -0.026

Q: What about the BI (PDZ domain SYNP2-1) of the same compound?
A: -0.044

Q: And the BI (PDZ domain SYNPO2L-1)?
A: -0.021

Q: And the BI (PDZ domain TIAM2-1)?
A: 0.037

Q: What about the BI (PDZ domain TJP1-2) of the same compound?
A: -0.006

Q: What about the BI (PDZ domain TJP1-3) of the same compound?
A: 0.099

Q: What about the BI (PDZ domain TJP2-1) of the same compound?
A: 0.086

Q: And the BI (PDZ domain TJP2-2)?
A: -0.005

Q: What about the BI (PDZ domain TJP2-3) of the same compound?
A: -0.025

Q: What about the BI (PDZ domain TJP3-2) of the same compound?
A: 0.112

Q: And the BI (PDZ domain TJP3-3)?
A: 0.12

Q: And the BI (PDZ domain TX1B3-1)?
A: -0.019

Q: And the BI (PDZ domain USH1C-1)?
A: -0.098

Q: And the BI (PDZ domain USH1C-2)?
A: -0.039

Q: And the BI (PDZ domain USH1C-3)?
A: -0.061

Q: And the “number of PDZ domains identified as potential binders (BI>0.20)” value (holdup, singlicate, threshold BI>0.20)?
A: 37 PDZ domains

Q: What about the “maximal BI” value (holdup, singlicate, highest BI in the PDZome profile, BI standard error ~0.07) of the same compound?
A: 0.86

Q: And the “binding of several PDZ domains (in words)” value (including several ones from MAGI and NHERF)?
A: detectably bound

Q: What about the “Max BI” value (maximum over PDZome) of the same compound?
A: 0.86

Q: What about the “number of partners detected for PTEN_KR and not for PTEN_Ac” value (over a total of 37) of the same compound?
A: 8
